These results are taken from patent US20050239173A1, “Production of amino sugars” (Cargill, Inc., priority 2003, published 2005).

The target in test [1] is T1, E. coli N-acetylglucosamine-6-phosphate deacetylase (Escherichia coli, UniProt P0AF18).
T1 construct: The Xa protease recognition site (IEGR) sits directly in front of the start codon of the gene of interest; His-tag (N); S-tag (N); Factor Xa recognition site (IEGR) (N); made in house; host or cells: E. coli BL21(DE3), pET30(Xa/LIC)
Nature of the test: Enzymatic deacetylation of N-acetylglucosamine followed over time (Elson and Morgan assay). The format is biochemical. To be noted: 37° C.; for [Glucosamine]: 0.1 mL of 500 mM N-acetylglucosamine in 0.2 mL, Tris-HCl pH 7.8, nagA cell extract. Here is the method: Fermentation broth and cell extract samples were routinely assayed using the method of Elson and Morgan (Biochem. J. 27:1824-1828) described by Zalkin (1985, Method Enzymol. 113:278-281) and Roden et al. (1997, Anal. Biochem. 254:240-248). Typically, to 0.08 mL of fermentation broth or 0.015 to 0.02 mL of cell extract was added 0.01 mL of saturated sodium bicarbonate solution and 0.01 mL of cold, freshly prepared 5% aqueous acetic anhydride. After a 3 minute incubation at room temperature, the mixture was incubated at 100° C. for 3 min to drive off the excess acetic anhydride. After cooling to room temperature, 0.12 mL of potassium borate, pH 9.2, was added and the mixture was incubated at 100° C. for 3 min. After cooling to room temperature, 1.0 mL of Ehrlich's reagent (1 gram p-dimethylaminobenzaldehyde in 100 mL glacial acetic acid containing 0.125 M HCl) was added to each tube. The tubes were incubated at 37° C. for 20 min and the absorbance at 585 nm was measured. All samples were assayed in duplicate. A standard curve was generated using 0.005 to 0.1 μmole glucosamine for quantification of product formation. Samples were assayed with and without the acetic anhydride addition to determine the amounts of glucosamine and N-acetylglucosamine present in the sample. The amount of N-acetylglucosamine was calculated from the results of assays without the acetic anhydride addition. The amount of glucosamine was calculated as the difference between the results with and without the acetic anhydride addition.
The enzymatic deacetylation of N-acetylglucosamine was followed over time. In a total of 0.2 mL was mixed 0.1 mL of 500 mM N-acetylglucosamine, 0.02 mL of 0.5 M Tris-HCl, pH 7.8 and nagA protein (cell extract fraction; 3.5 mg/mL protein). The mixtures were incubated from 0 to 120 min at 37° C. To distinguish between glucosamine and N-acetylglucosamine using the Elson and Morgan method described in the Materials and Methods section, the product formation in the samples was measured with and without the acetylation step. The amount of glucosamine was calculated as the difference between the assay results with and without the acetylation step. After 120 min approximately 74% of the substrate N-acetylglusosamine was converted to glucosamine.

Test [2] concerns the target glucosamine-6-phosphate synthase (Escherichia coli, UniProt P17169). As to conditions: White, Biochem. J. 106:847-858 (1968); cited from earlier work.
Test [3] concerns S. cerevisiae strain BY4742. Briefly: Growth of S. cerevisiae strains in the presence of glucosamine (OD600). The format is cell-based, Saccharomyces cerevisiae. To be noted: BY4742 GFA1pESCHis. The protocol: (§1) S. cerevisiae strains BY4742 and BY4743 transformed with pESCHis carrying the GFA1 insert were grown in 5 mL SC-His medium containing 2% glucose overnight at 30° C. with shaking. An aliquot (0.5 mL) from each culture was transferred to 6 flasks containing 50 mL of SC-His medium containing 2% glucose. Glucosamine at the following concentrations was added to the flasks: 0, 2, 6, 10, 15, 20 mg/mL for each strain. The incubation was continued for 28 h at 30° C. with shaking. At 3, 16 and 28 h samples were withdrawn and the optical density at 600 nm was measured.

Test [4] concerns S. cerevisiae strain BY4743. The test is described as above. The format is cell-based, Saccharomyces cerevisiae. As to conditions: BY4743 GFA1pESCHis. Here is the method: as §1
In test [5] the test system is S. cerevisiae strain BY4742. The test is described as above. The format is cell-based, Saccharomyces cerevisiae. To be noted: parental strains of Examples 1-3 (BY4742 and BY4743); concentrations of glucosamine as high as 20 g/L.
Test [6] concerns osteoarthritis. As to conditions: patients; cited from earlier work.

Chain of glucosamine-6-phosphate synthase (P17169 whole entry): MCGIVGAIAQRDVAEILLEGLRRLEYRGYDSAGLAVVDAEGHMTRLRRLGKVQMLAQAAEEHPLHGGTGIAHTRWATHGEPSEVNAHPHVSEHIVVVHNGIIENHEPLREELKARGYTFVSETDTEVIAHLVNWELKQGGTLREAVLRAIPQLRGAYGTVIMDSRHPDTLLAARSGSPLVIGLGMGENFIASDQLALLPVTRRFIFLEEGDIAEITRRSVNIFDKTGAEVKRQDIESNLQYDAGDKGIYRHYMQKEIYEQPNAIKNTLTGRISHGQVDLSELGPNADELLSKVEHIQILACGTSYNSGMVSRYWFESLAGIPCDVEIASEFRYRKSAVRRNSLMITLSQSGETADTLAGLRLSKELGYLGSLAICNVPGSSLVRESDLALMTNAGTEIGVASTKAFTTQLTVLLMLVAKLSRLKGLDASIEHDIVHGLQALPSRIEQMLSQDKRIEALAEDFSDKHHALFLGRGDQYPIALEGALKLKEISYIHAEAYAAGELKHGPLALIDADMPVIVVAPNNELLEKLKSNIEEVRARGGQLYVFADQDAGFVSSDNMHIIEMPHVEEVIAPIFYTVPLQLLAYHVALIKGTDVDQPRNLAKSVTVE

In the case of `CC(=O)N[C@@H](C=O)[C@@H](O)[C@H](O)[C@H](O)CO` [N-acetylglucosamine, 2-acetamino-2-deoxy-D-glucose], the “[Glucosamine]” value in test [1] (0 min) stood at 0.0 mM; in test [1] (15 min), 126.3 mM; in test [1] (30 min) it was 136.3 mM; in test [1] (60 min), 161.3 mM; in test [1] (120 min) it was 185.0 mM. Also, in test [1] (after 120 min, nagA cell extract), the “substrate converted to glucosamine” value is reported as “approximately 74%”.
`N[C@H]1C(O)O[C@H](COP(=O)(O)O)[C@@H](O)[C@@H]1O` (stereo partly shown) [glucosamine-6-phosphate]: in test [2], the “inhibition of glucosamine-6-phosphate synthase activity” value is recorded as “inhibited”.
`N[C@H]1C(O)O[C@H](CO)[C@@H](O)[C@@H]1O` (stereo partly shown) [glucosamine, 2-amino-2-deoxyglucopyranose]: the OD600 came to 0.71 in test [3] (glucosamine 2.0 mg/mL, 3 h); 3.06 in test [3] (glucosamine 2.0 mg/mL, 16 h); 3.32 in test [3] (glucosamine 2.0 mg/mL, 28 h); 0.66 in test [3] (glucosamine 6.0 mg/mL, 3 h); 2.98 in test [3] (glucosamine 6.0 mg/mL, 16 h); 3.27 in test [3] (glucosamine 6.0 mg/mL, 28 h). Besides, the OD600 in test [3] (glucosamine 10.0 mg/mL, 3 h) turned out to be 0.64; in test [3] (glucosamine 10.0 mg/mL, 16 h), 2.87; in test [3] (glucosamine 10.0 mg/mL, 28 h), 3.06; in test [3] (glucosamine 15.0 mg/mL, 3 h), 0.60; in test [3] (glucosamine 15.0 mg/mL, 16 h), 2.92; in test [3] (glucosamine 15.0 mg/mL, 28 h), 3.22. For the same compound, the OD600 in test [3] (glucosamine 20.0 mg/mL, 3 h) amounted to 0.57; in test [3] (glucosamine 20.0 mg/mL, 16 h), 2.84; in test [3] (glucosamine 20.0 mg/mL, 28 h) it was 3.02; in test [4] (glucosamine 2.0 mg/mL, 3 h), 0.74; in test [4] (glucosamine 2.0 mg/mL, 16 h), 4.12; in test [4] (glucosamine 2.0 mg/mL, 28 h), 4.69. Moreover, the OD600 amounted to 0.76 in test [4] (glucosamine 6.0 mg/mL, 3 h); 3.99 in test [4] (glucosamine 6.0 mg/mL, 16 h); 5.02 in test [4] (glucosamine 6.0 mg/mL, 28 h); 0.66 in test [4] (glucosamine 10.0 mg/mL, 3 h); 4.18 in test [4] (glucosamine 10.0 mg/mL, 16 h); 4.36 in test [4] (glucosamine 10.0 mg/mL, 28 h). In addition, the OD600 was determined as 0.68 in test [4] (glucosamine 15.0 mg/mL, 3 h); 4.00 in test [4] (glucosamine 15.0 mg/mL, 16 h); 4.14 in test [4] (glucosamine 15.0 mg/mL, 28 h); 0.38 in test [4] (glucosamine 20.0 mg/mL, 3 h); 3.78 in test [4] (glucosamine 20.0 mg/mL, 16 h); 3.98 in test [4] (glucosamine 20.0 mg/mL, 28 h). Besides, the “effect of glucosamine on the parental strains” value in test [5] is on record as “not affected”. Also, in test [6], the “effect on joint structure” value is listed as “improve joint structure”. Besides, the “effect on pain of osteoarthritis” value in test [6] is listed as “reduce the pain of osteoarthritis in some patients”.
